The experiment relates to LPS-induced release of TNFα from PBMCs from patients suffering from rheumatoid arthritis. Kind of experiment: ELISA-based TNFα release assay, PBMCs from RA-patients. It is filed as cell-based. The conditions noted are these: Homo sapiens, PBMC; chimeric antibodies (CHO) 1 μg/ml; Batimastat 10 μM; LPS 1 ng/ml, 1.5 hours. The procedure:
In contrast to Example 32, where the inhibitory effects of the antibodies of the present disclosure on LPS-induced release of endogenous TNFα from primary human material obtained from healthy donors using peripheral blood mononuclear cells (PBMCs) were tested, this analysis was conducted to analyze the inhibitory effects of the antibodies of the present disclosure on LPS-induced release of endogenous TNFα from primary human material obtained from patients suffering from rheumatoid arthritis (RA-patients).
In brief, on day 1, Nunc black MaxiSorp® 96-well plates (Thermo Fisher Scientific, USA) were coated overnight with 100 μl per well of mouse anti-human TNFα capture antibody (provided as part of the DuoSet ELISA kit) at 4 μg/ml TBS at 4° C. On day 2, the capture antibody solution was removed and MaxiSorp® plates were blocked with 300 μl per well of TBS, 1% BSA at room temperature for 3 hours. […] Using an infinite M1000 (Tecan Group, Switzerland) microplate reader, the fluorescence of each well was collected at an excitation wavelength of 435 nm and an emission wavelength of 555 nm.
(In general: An ELISA detects its analyte on a solid surface through an enzyme-linked reagent.)

One may read the inhibition as the share of the control response that was lost under treatment. Read a low inhibition as a response near the control. On to `CNC(=O)[C@H](Cc1ccccc1)NC(=O)[C@H](CC(C)C)[C@H](CSc1cccs1)C(=O)NO` [Batimastat], for which the inhibition at 10 µM is 99.9%.
